The test system of data set [1] is Reconstructed human epidermis (RHE) tissues. Kind of data set: RT-qPCR gene expression of K10, K19, filaggrin, K4 and K13 in reconstructed human epidermis (RHE) cultures. The class given is cell-based. Particulars: 72 h, 2.83 mM in OD/10% DMSO, 6 μl. On the procedure:
Reconstructed human epidermis (RHE) tissues were cultured in-house as previously described by Poumay et al. Briefly, polycarbonate culture inserts (12 mm diameter and 0.4 μm pore size, Millipore) were filled with 150 μL of a suspension containing approximately 5×10^5 primary adult human keratinocytes. The inserts received another 500 μL of keratinocyte culture media and were placed in a 6-well plate (1 insert/well) containing 2.5 mL of RHE Growth Media (Epilife media +1.5 mM CaCl2). RHE cultures were incubated at 37° C. in a humidified atmosphere containing 5% CO2, for 24 hours. Subsequently (on Day 0), RHE cultures were exposed to the air-liquid interface by removing the RHE Growth Media from the top of the cultures, and replacing with 1.5 mL/well of RHE Growth Media containing 50 μg/mL vitamin C. Media was changed every other day until the cultures were dosed with Test Articles. A stock solution of 0.1% tazarotene (2.83 mM at 99.5% purity) in OD/10% DMSO was prepared. For tazarotene benzoate, hydroxytazarotenic acid, keto tazarotenic acid, keto tazarotene, and tazarotene nicotinate, a 10 mg/mL stock solution (in DMSO) was already prepared. From this stock solution, a 2.83 mM working solution (in octyldodecanol) was prepared. All other tested compounds were resuspended in DMSO and OD to obtain a final concentration of 2.83 mM in OD/10% DMSO. On Day 12, the cultures were placed in 60 mm petri dishes containing 3 mL of RHE Growth Media (+VitC). Test articles (6 μl) were applied to triplicate cultures and cultures were incubated at 37° C. for 72 hours. Untreated and OD alone served as negative controls. At the end of the incubation period, the growth media was collected and stored at −20° C. The tissues were cut in half: one half was placed in 10% NBF for histology, and the other half was placed in RNAlater™ solution for RT-qPCR. RNA was isolated and concentrations were determined using a NanoDrop spectrophotometer. In addition to using the same amount of RNA for each sample, data was normalized to internal GAPDH mRNA levels and is expressed as relative quantification (RQ) to untreated controls. RNA extracts from each replicate were amplified using RT-qPCR. The relative gene expression of five biomarkers was determined: Keratin 10, Keratin 19, Filaggrin, Keratin 4, and Keratin 13.

The nature of data set [2]: Reaction with benzoyl peroxide (BPO) in solution. Particulars: at all three temperatures (35° C., room temperature, 5° C.); BPO 50-fold excess by weight. The class given is physicochemical. On the procedure: The reaction of (i) tazarotene, tazarotene benzoate, hydroxy tazarotenic acid and tazarotene nicotinate with (ii) benzoyl peroxide (BPO) in 30% aqueous solutions was monitored at 35° C., room temperature and 5° C.
Individual solutions of each compound were prepared at approximately 0.25 mg/mL in acetonitrile:water (6:4 by volume). Reactions were initiated by mixing equal volumes of the test solution with an approximately 12 mg/mL solution of benzoyl peroxide (BPO) in acetonitrile:water (4:1 by volume). Therefore, the reaction solution contained approximately 0.125 mg/mL of the test compound and the BPO was at a 50-fold excess by weight (i.e. at the same ratio as a product containing 0.1% tazarotene and 5% BPO). Aliquots of the reaction solutions were stored at various temperatures protected from light.
Reactions were quenched by diluting 30 μL of the reaction solution to 50 mL with a diluent (acetonitrile:water in a ratio of 1:1 by volume) and storing the sample at 10° C. in the LC/MS sample tray or at 5° C. for storage. Duplicate samples were prepared at each time point (three at the start of the reaction) and the results were averaged together to generate a single value.
Samples were analyzed on a Waters Acquity UPLC with a Waters Xevo TQMS using an ESI source in the positive mode controlled by MassLynx V4.1 software. […]

The structures appear in SMILES notation. Like-named read-outs stand apart in the source and are kept apart here.

On to `CCOC(=O)c1ccc(C#Cc2ccc3c(c2)C(C)(C)CC(OC(=O)c2cccnc2)S3)nc1` (stereo not shown) [Compound 7, 6-[4,4-Dimethyl-2-(pyridine-3-carbonyloxy)thiochroman-6-ylethynyl]nicotinic acid ethyl ester], for which the values for the fold induction at 2830 µM in data set [1] (read-out: K4 Fold Change vs Untreated/OD controls (upregulation)), in data set [1] (read-out: K13 Fold Change vs Untreated/OD controls (upregulation)) and in data set [1] (read-out: K19 Fold Change vs Untreated/OD controls (upregulation)) were 23, 8 and 17, respectively. In addition, the “less reactive with BPO than tazarotene and hydroxy tazarotenic acid” value in data set [2] was approximately 25 times.
